{"source": "paper PMC7578299", "about": "“The antiviral effects of baloxavir marboxil against influenza A virus infection in ferrets” (Influenza and Other Respiratory Viruses, 2020)", "key": {"[1]": {"assay": "Metabolic stability in liver microsomes, human", "format": "in vitro ADME", "conditions": "for % Residual in liver microsome: 0.5 mg/mL, 2 μmol/L, 37°C, mean of duplicates; for % Residual in liver microsome Individual value: duplicates", "procedure": "Liver microsomes were prepared from ferrets, rats, dogs, and monkeys, as previously described. ^28 Human liver microsomes were obtained from Sekisui‐XenoTech, LLC and pooled (n = 15). Metabolic stability of the compounds in liver microsomes was tested in duplicate. Oseltamivir and cefcapene pivoxil were used as reference compounds. Liver microsomes at 0.5 mg/mL concentration (final volume of 0.2 mL) were incubated in Tris‐HCl buffer (pH 7.4), containing 50 mmol/L Tris‐HCl, 150 mmol/L KCl, 10 mmol/L MgCl2. The hydrolysis reaction was initiated by applying the test compound solution (final concentration 2 μmol/L). After incubation for 10, 20, and 30 minutes at 37°C, the hydrolysis was terminated by the addition of twofold volume of ice‐cold acetonitrile/methanol (1:1, v/v). Samples were centrifuged at 3000 rpm for 10 minutes prior to LC‐MS/MS analysis of compounds in the supernatants."}, "influenza virus": {"system": "influenza virus", "parameters": "method as in PMID 30288682", "conditions": "patients, cited from earlier work"}, "[2]": {"system": "Influenza A virus A/Kadoma/3/2006 (H1N1)", "assay": "Experiment 2: infected ferrets, treatment starting at Day 2 p.i. (virus titer in nasal washes, body temperature)", "conditions": "treatment from Day 2 p.i.; BXM 10 mg/kg twice daily 1 day"}}, "note": "Several values for one entry are separate records, joined by “and”; a condition that tells them apart may be missing. Equal entries are not always repeated.", "data": [{"smiles": "COC(=O)OCOc1c2n(ccc1=O)N([C@@H]1c3ccccc3SCc3c1ccc(F)c3F)[C@@H]1COCCN1C2=O", "note": "[BXM, Baloxavir marboxil]", "values": [{"measurement": "% Residual in liver microsome", "setting": "[1]; 10 min", "result": 8.2, "unit": "%"}, {"measurement": "% Residual in liver microsome", "setting": "[1]; 20 min", "result": 0.3, "unit": "%"}, {"measurement": "% Residual in liver microsome", "setting": "[1]; 30 min", "result": 0.0, "unit": "%"}, {"measurement": "% Residual in liver microsome Individual value", "setting": "[1]; 10 minutes", "result": "8.4% and 8.0%"}, {"measurement": "% Residual in liver microsome Individual value", "setting": "[1]; 20 minutes", "result": "0.3% and 0.2%"}, {"measurement": "% Residual in liver microsome Individual value", "setting": "[1]; 30 minutes", "result": 0.0, "unit": "%"}, {"measurement": "time within which infectious virus titers declined", "setting": "influenza virus; single weight-based oral dose 40 or 80 mg", "result": "≤ 1", "unit": "days"}, {"measurement": "time to alleviation of symptoms (in words)", "setting": "influenza virus; vs placebo and OSP", "result": "superior compared with placebo but not significantly different from the effect of OSP treatment"}, {"measurement": "body temperature changes over time (in words)", "setting": "[2]", "result": "a small but significant effect was observed with BXM compared with vehicle on Day 2"}]}]}
